Laboratory results from article PMC5640798 (Synthetic and Systems Biotechnology, 2016).

Target: hERG potassium channel (Homo sapiens, UniProt Q12809)
Experiment: hERG channel inhibition test
Assay type: cell-based

Chain of hERG potassium channel (Q12809 whole entry): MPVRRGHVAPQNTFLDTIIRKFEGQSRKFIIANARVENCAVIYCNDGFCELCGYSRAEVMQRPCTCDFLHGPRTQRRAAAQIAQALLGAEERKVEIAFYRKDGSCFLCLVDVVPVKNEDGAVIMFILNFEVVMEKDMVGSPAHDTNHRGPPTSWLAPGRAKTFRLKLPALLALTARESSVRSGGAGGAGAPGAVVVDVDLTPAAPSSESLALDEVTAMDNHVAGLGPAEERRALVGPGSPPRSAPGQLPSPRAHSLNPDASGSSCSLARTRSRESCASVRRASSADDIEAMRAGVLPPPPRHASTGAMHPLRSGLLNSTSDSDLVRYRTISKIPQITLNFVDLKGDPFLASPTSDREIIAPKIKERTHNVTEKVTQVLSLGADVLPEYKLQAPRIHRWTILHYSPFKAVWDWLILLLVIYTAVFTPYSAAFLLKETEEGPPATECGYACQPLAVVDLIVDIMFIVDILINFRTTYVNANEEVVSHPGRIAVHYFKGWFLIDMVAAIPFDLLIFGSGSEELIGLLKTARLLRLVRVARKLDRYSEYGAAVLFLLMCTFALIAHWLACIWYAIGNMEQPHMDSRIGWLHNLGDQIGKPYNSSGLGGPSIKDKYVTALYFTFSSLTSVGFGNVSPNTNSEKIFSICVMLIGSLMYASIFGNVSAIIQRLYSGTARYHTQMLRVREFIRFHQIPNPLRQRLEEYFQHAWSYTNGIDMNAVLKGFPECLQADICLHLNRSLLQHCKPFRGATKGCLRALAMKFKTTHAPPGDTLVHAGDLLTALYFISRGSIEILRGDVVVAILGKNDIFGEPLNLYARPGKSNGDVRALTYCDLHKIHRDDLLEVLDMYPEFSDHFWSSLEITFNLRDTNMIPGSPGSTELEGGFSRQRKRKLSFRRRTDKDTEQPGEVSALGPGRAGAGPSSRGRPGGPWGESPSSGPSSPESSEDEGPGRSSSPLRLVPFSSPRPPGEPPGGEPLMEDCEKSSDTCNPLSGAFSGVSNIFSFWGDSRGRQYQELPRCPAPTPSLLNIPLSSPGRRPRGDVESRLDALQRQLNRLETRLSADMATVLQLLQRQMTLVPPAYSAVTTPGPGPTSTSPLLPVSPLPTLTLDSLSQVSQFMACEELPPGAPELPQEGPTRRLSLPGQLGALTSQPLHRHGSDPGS

CC(C)[C@H]1OC(=O)[C@H](Cc2ccccc2)N(C)C(=O)[C@@H](C(C)C)OC(=O)[C@H](Cc2ccccc2)N(C)C(=O)[C@@H](C(C)C)OC(=O)[C@H](Cc2ccccc2)N(C)C1=O [BEA, beauvericin] showed an IC50 of ~2550 nM.
